Experimental data published in patent US6586460B1, “Heteroarotinoids containing urea or thiourea linker” (The Board of Regents for Oklahoma State University, priority 2001, dated 2003).

What was measured:
C-33A = experiment: Growth inhibition assay (SRB); assay type: cell-based; settings: 10 μM, three-day treatment, Table I
Source text: (§1) To illustrate the general and useful biological activity of the heteroarotinoids described in this invention, selected compounds were screened for ability to inhibit the growth of three ovarian cancerous cell lines, namely Caov, SKOV, and OVCAR cell lines, three cervical cell lines (Cervix HPV-Wt p53, Cervix HPV-Mut p53, and Cervix HPV-Mut p53), and one vulvar (Vulvar HPV-Mut p53) cell line as shown in Tables I-III. The cell lines and the technology have been previously described [See Journal of Medicinal Chemistry, 1999, Vol. 42, pages 3602-3614 in an article entitled “Synthesis, Structure-Activity Relationships, and RAR γ-Ligand Interactions of Nitrogen Heteroarotinoids” by A. Dhar, S. Liu, J. Klucik, K. D. Berlin, M. M. Madler, S. Lu, R. T. Ivey, D. Zacheis, C. W. Brown, E. C. Nelson, P. J. Birckbichler, and D. M. Benbrook], but the general technique was slightly modified. Cultures of the cancerous cells were plated in volumes of 150 μL in 96-well microtiter plates at concentrations of 2000-4000 cells/well, depending upon the cell line used. Retinoids were added the next day at 4× the concentrations in 50 μL of media resulting in 1, 2, 3, 4, 5, 7, and 10 μM final concentrations of each retinoid. Control cultures were treated with the same volume of DMSO. After 3 days of treatment, the cell density in each well was determined by fixing the cells in trichloroacetic acid followed by staining the cytoplasmic proteins with sulforhoamine B (SRB). After rinsing, the SRB was solubilized in Tris-HCl, and the optical density of each culture was determined with a MR600 microtiter plate reader. Each experiment was performed in triplicate, and the three values of each treatment were averaged. The average OD of the treated cultures was divided by that of the control cultures treated with solvent alone. To determine the percent growth inhibition, this ratio was subtracted from 1 and multiplied by 100. Tables I, II, and III contain representative examples of the inhibition of growth by the inventive heteroarotinoids of the cancerous cell lines investigated at two independent concentrations (1 and 10 μM). As standards for comparison purposes, trans-retinoic acid (t-RA), 9-cis-retinoic acid (9-c-RA), 13-cis-retinoic acid (13-c-RA), and […] (4-HPR) were added in parallel experiments along with the heteroarotinoids and with dimethyl sulfoxide (DMSO) as the solvent. For convenience, the data in Tables II and III are duplicated and ranked according to tumor type.

CAOV-3 = experiment: Growth inhibition assay (SRB); assay type: cell-based; settings: 10 μM, three-day treatment, Table I
Source text: as §1

HT-3 = experiment: Growth inhibition assay (SRB); assay type: cell-based; settings: 10 μM, three-day treatment, Table I
Source text: as §1

SK-OV-3 = experiment: Growth inhibition assay (SRB); assay type: cell-based; settings: 10 μM, three-day treatment, Table I
Source text: as §1

SW962 = experiment: Growth inhibition assay (SRB); assay type: cell-based; settings: 10 μM, three-day treatment, Table I
Source text: as §1

SiHa = experiment: Growth inhibition assay (SRB); assay type: cell-based; settings: 10 μM, three-day treatment, Table I
Source text: as §1

OVCAR-3 = experiment: Growth inhibition assay (SRB); assay type: cell-based, human; settings: 10 μM, three-day treatment, Table I
Source text: as §1

[1] = test system: ovarian carcinoma cell line OVCAR-3; experiment: Apoptosis in organotypic culture, TUNNEL assay; assay type: cell-based, human; settings: 1 μM; for % APOPTOSIS of OVCAR-3 cells: two weeks, organotypic culture, TUNNEL assay; for inducing apoptosis in the OVCAR-3 cell line, comparison in words: Table V
Method: In another experiment, the ovarian carcinoma cell line OVCAR-3 was grown in organotypic culture. After one week, the cultures were treated with 1 μM solution of heteroarotinoids 11, 12, and 13, or with the same volume of DMSO (solvent), for two weeks. Both 9-c-RA and 4-HPR were used as controls. At the end of the time, the cultures were fixed in sectioned, and stained with the TUNNEL assay to detect apoptosing cells. An experienced pathologist quantitated the percent of apoptosing cells by light microscopic examination.

[2] = test system: OVCAR-3 cisplatin-resistant ovarian carcinoma cell line; experiment: Cisplatin chemosensitization (MTS assay); assay type: cell-based, human; settings: 1 μM retinoid 3 days before and 3 days after one hour of cisplatin (40 μM or 1 μg/ml)
Method: The compounds of the present invention also find advantage over the standard retinoids, including retinoic acid and 4-HPR as chemosensitization agents. In another study, ovarian carcinoma cultures, including cisplatin-resistant cultures, were trypsinized and plated in microtiter plates at a concentration of 1000 cells per well. A series of natural and synthetic retinoids, including exemplar heteroarotinoids with the novel three atom linker, at a concentration of 5 μM were added to triplicate wells in the microtiter plates twenty-four hours later. The same volume of DMSO used to administer the compounds were added to the control cultures. After three days of treatment, a range of cisplatin concentrations were added to the wells. After one hours of exposure, the media and retinoid drugs were replenished. Cell survival was quantitated using the MTS assay (Promega). […] Thus, the present invention contemplates the process of sensitizing cells to cisplatin therapy and combined cisplatin and radiation therapy using the inventive heteroarotinoids.
In this regard, the cisplatin resistant OVCAR-3 cell line was pre-treated with a concentration of 1 μM of the indicated retinoids for 3 days, and then exposed to cisplatin at the concentration detected in tumors of treated patients (40 μM or 1 μg/ml). […] After one hour of cisplatin exposure, the cisplatin was removed and the cultures were grown in the presence of 1 μM of the indicated retinoids for an additional 3 days. The number of living cells present was then determined using the MTS (3-(4,5-dimethylthiazol-2-yl)-5-(3-carboxymethoxyphenyl)-2H-tetrazolium inner salt) assay (Promega). In the MTS assay, metabolically active cells reduce the MTS compound to an aqueous soluble formazan resulting in an absorbance that can be measured at 490 nm (Promega Technical Bulletin No.169). The optical density at 490 nm (OD490) of the MTS-treated cultures is then determined and used as a measure of the number of living cells in each well. The percent growth is determined by dividing the OD490 of the treated cultures by the OD490 of the untreated control cultures.

[3] = Monitoring of xenograph mice for signs of toxicity; assay type: in vivo; settings: 10 mg/kg/day (MTD for t-RA)
Method: Then OVCAR-3 cells in log phase growth were harvested by trypsinization, resuspended in RPMI culture medium, and centrifuged at 3000 rpm for 10 min. The pellets were then resuspended in RPMI culture medium at a concentration of 7×10^6 cells/mL before implantation into mice. Animals were injected with 3.5×10^6 cells into right scapular region with a 24-gauge needle/1 mL tuberculin syringe (Becton Dickinson, Rutherford, N.J.). Twenty four hours after tumor implantation, animals were randomized into four treatment groups of 5 animals each. Retinoids were administered daily p.o. beginning 35 days after tumor implantation with a 20-gauge intragastric feeding tube (Popper & Sons, New Hyde Park, N.Y.), 5 days/week, at doses of 10 mg/kg/day in 0.1 mL of super refined sesame oil (Corda, Inc., Parisppany, N.J.). Tumors were measured with calipers weekly, and tumor volumes were calculated using the formula: volume=length×width×heigth. Animal weights and clinical signs of overall health status and cutaneous toxicities were recorded weekly.

Compound | Percentage growth inhibition, C-33A (Cervix HPV− Mut p53) (C-33A) | Percentage growth inhibition, CAOV-3 (Ovarian HPV− Mut p53) (CAOV-3) | Percentage growth inhibition, HT-3 (Cervix HPV− Mut p53) (HT-3) | Percentage growth inhibition, SK-OV-3 (Ovarian HPV− Null p53) (SK-OV-3) | Percentage growth inhibition, SW962 (Vulva HPV− Mut p53) (SW962) | Percentage growth inhibition, SiHa (Cervix HPV+ Wt p53) (SiHa) | Percentage growth inhibition, OVCAR-3 (Ovarian HPV− Mut p53) (OVCAR-3) | % APOPTOSIS of OVCAR-3 cells [1] | inducing apoptosis in the OVCAR-3 cell line, comparison in words [1] | chemosensitization to cisplatin (percent growth, FIG. 2) [2] | toxicity to the skin, bones, or liver [3]
CC1(C)CC(C)(C)c2cc(NC(=S)Nc3ccc([N+](=O)[O-])cc3)ccc2S1 [heteroarotinoid 11] | 87% | 80% | 82% | 100% | 98% | 72% | 94% | 95% | as effective as 4-HPR | effective | did not cause toxicity
CCOC(=O)c1ccc(NC(=O)Nc2ccc3c(c2)C(C)(C)CC(C)(C)S3)cc1 [heteroarotinoid 13] | 76% | 98% | 85% | 94% | 96% | 66% | 77% | 80% | as effective as 4-HPR | effective | did not cause toxicity
